Experimental findings from US20260070885A1, “TRKA (G667C) AND FLT3 TARGET INHIBITOR AND COMBINATION OF SAME WITH CHIDAMIDE” (SHENZHEN CHIPSCREEN BIOSCIENCES CO., LTD., priority 2022, published 2026) are described below.

For one assay, the target named is FLT3 (Homo sapiens (Human), UniProt P36888). Kind of assay: HTRF kinase inhibition assay, FLT3. It is filed as biochemical. As to conditions: ATP 2 μM. Here is the method:
(§1) The inhibition of the kinases TRKA (G667C), FLT3, and FLT3 (D835Y) by the compound N-[4-(6-fluoro-1H-2-benzimidazolyl)benzyl]-(E)-3-(pyridin-3-yl)acrylamide of the present disclosure (hereinafter referred to as compound A) was assessed using a homogeneous time-resolved fluorescence (HTRF) method based on biochemical levels.
(§2) HTRF is a technology used for detecting a test substance in a pure liquid phase system. Based on two major technologies: fluorescence resonance energy transfer (FRET) and time-resolved fluorescence (TRF), the generated fluorescence intensity was measured using a microplate reader, and the ratio 665 nm/620 nm reflected the extent to which compound A inhibited the activity of the kinases TRKA (G667C), FLT3, and FLT3 (D835Y).
(§3) a) Preparation of compound A or chidamide: The starting stock solution concentration of compound A or chidamide was 20 mM. The stock solution was serially diluted with the solvent 100% DMSO to 0.2 mM, which was 200 times the assay starting concentration.
(§4) b) A kinase reaction buffer Assay Buffer was prepared using the following formula: […]
(§5) 4) After the 384-well plate was centrifuged at 1000 rpm for 30 s and shaken for thorough mixing, the fluorescence intensities at 665 nm and 620 nm were measured using EnVision, and the TR-FRET ratio (665 nm/620 nm) was calculated. […]
In general terms: In TR-FRET formats the signal depends on donor and acceptor labels being close together.

A further assay concerns SHP77 cells. Kind of assay: Viability of SHP77 cells (MTS assay). The format is cell-based. As to conditions: 72 h. The protocol: The SHP77 cell line was purchased from the American Type Culture Collection (ATCC) and cultured in an RPMI-1640 culture medium (Hyclone) containing 1% dual antibiotics (penicillin-streptomycin, Hyclone) and 10% fetal bovine serum (Gibco).
Compound A (N-[4-(6-Fluoro-1H-2-benzimidazolyl)benzyl]-(E)-3-(pyridin-3-yl)acrylamide) and chidamide were both from Shenzhen Chipscreen Biosciences Co., Ltd. The compound and chidamide were dissolved in dimethyl sulfoxide (DMSO, Shanghai Sangon, DN3039A) to prepare 20 mM working mother liquors, and the mother liquors were stored in a freezer at −20° C. before use. When in use, the mother liquors were diluted to prepare working solutions with corresponding final concentrations according to the needs of each experiment.
MTS solution: 42 mg of MTS Reagent Powder was placed in a light shielding container, and 21 mL of PBS was added. The mixture was gently stirred on a magnetic stirrer for 15 min until MTS was completely dissolved. The pH of the solution was measured. If the pH was higher than 6.5, the pH of the solution was adjusted to 6.5 with 1 M HCl. The solution was sterilized by filtration through a 0.2 μm filter and stored at −20° C. in a dark place.
PMS solution: […] of PMS was added to 21.7 mL of PBS to prepare a 150 μM stock solution, and the stock solution was sterilized by filtration, aliquoted, and stored at −20° C. in a dark place.
2.2. […]
2.4. […] After the plate was incubated for about 1 h, the absorbance at 490 nm in each well was measured using a microplate reader.
The reading of the BLANK well was OD490-BLANK (background value). The background value was subtracted from the readings of the wells to obtain the absorbance values of the administration wells, OD490-T, and the absorbance values of the control wells in which the drug concentration was 0, OD490-T0. With the cell viability of the control wells defined as 100%, the relative cell survival rate in each administration well was calculated using the formula: relative cell survival rate (%)=(OD490-T/OD490-T0)×100%.

A further assay deals with TRKA (G667C) (Homo sapiens (Human), UniProt P04629, G667C). Put plainly: HTRF kinase inhibition assay, TRKA (G667C). It is filed as biochemical. The note with it: ATP 0.5 μM. The protocol: as §1, §2, §3, §4, §5
TRKA (G667C), sequence (P04629 33-796 G667C): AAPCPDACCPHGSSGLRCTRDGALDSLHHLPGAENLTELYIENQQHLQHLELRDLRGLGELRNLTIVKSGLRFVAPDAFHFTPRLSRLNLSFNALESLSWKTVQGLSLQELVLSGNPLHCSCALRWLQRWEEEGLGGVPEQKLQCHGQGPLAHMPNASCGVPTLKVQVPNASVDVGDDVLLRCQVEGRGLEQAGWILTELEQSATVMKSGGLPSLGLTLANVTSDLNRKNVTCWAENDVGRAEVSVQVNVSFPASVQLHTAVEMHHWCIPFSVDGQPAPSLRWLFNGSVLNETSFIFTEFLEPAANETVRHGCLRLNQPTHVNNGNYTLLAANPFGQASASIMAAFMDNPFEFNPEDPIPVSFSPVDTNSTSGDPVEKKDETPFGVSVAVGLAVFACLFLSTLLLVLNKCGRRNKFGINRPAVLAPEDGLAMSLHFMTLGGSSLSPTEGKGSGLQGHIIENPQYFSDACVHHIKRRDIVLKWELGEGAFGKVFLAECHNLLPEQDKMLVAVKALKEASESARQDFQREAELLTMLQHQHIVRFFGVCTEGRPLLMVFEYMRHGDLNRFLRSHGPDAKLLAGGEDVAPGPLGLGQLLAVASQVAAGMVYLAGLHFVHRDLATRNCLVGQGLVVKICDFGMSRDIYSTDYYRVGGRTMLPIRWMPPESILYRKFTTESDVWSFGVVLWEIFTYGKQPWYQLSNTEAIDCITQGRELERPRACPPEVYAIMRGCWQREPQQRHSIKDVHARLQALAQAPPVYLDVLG
A further assay deals with FLT3 (D835Y) (Homo sapiens (Human), UniProt P36888, D835Y). Put plainly: HTRF kinase inhibition assay, FLT3 (D835Y). The format is biochemical. As to conditions: ATP 0.5 μM. Here is the method:
as §1, §2, §3, §4, §5

pIC50: −log10 of the molar value. A value given as a limit tells only on which side of the number the result lay.

As usually defined, the pIC50 is the IC50 on a negative log10 scale, so that one unit is a factor of ten. Low readings indicate a large IC50, high ones a small IC50. In the case of `O=C(/C=C/c1cccnc1)NCc1ccc(-c2nc3ccc(F)cc3[nH]2)cc1` [Compound A, N-[4-(6-fluoro-1H-2-benzimidazolyl)benzyl]-(E)-3-(pyridin-3-yl)acrylamide], the pIC50 against FLT3 is 6.85; on TRKA (G667C), 7.39; against FLT3 (D835Y) it was 6.98. Also, the “relative cell survival rate” value in the assay with SHP77 cells (compound A alone 0.625 μM) is 77.43±1.18%; with SHP77 cells (compound A alone 1.25 μM), 44.09±6.59%.
On to `Nc1cc(F)ccc1NC(=O)c1ccc(CNC(=O)/C=C/c2cccnc2)cc1` [Chidamide, N-(2-amino-4-fluorophenyl)-4-[N-[(E)-3-(pyridin-3-yl)acryloyl]aminomethyl]benzamide], for which the pIC50 against FLT3, against TRKA (G667C) and against FLT3 (D835Y) was under 6.00 throughout. Besides, in the assay on SHP77 cells (chidamide alone 0.5 μM), the “relative cell survival rate” value turned out to be 95.45±0.81%.
